In the NIST ThermoML archive (doi:10.1021/acs.jced.8b00236):

Assay: mn = molality of the nth substance listed, in mol/kg
Conditions: 75 kPa, Liquid; for viscosity: Capillary tube (Ostwald / Ubbelohde) method; for speed of sound: Frequency=3 MHz, Single path-length method; for mass density: Vibrating tube method

NCCCCC(=O)O [5-aminovaleric acid] + O
Conditions	mass density [kg/m3]	speed of sound [m/s]	viscosity [mPa·s]
288.15 K, m1 = 0.1389	1003.29	1481	1.215
288.15 K, m1 = 0.2789	1007.34	1495.3	1.293
288.15 K, m1 = 0.4193	1011.22	1509.3	1.38
288.15 K, m1 = 0.5604	1014.96	1523	1.473
288.15 K, m1 = 0.7025	1018.54	1536.5	1.575
288.15 K, m1 = 0.8448	1021.98	1549.8	1.685
293.15 K, m1 = 0.1389	1002.34	1496.8	1.073
293.15 K, m1 = 0.2789	1006.33	1510.7	1.135
293.15 K, m1 = 0.4193	1010.16	1524.2	1.208
293.15 K, m1 = 0.5604	1013.85	1537.5	1.289
293.15 K, m1 = 0.7025	1017.4	1550.4	1.376
293.15 K, m1 = 0.8448	1020.81	1562.9	1.477
298.15 K, m1 = 0.1389	1001.15	1510.3	0.946
298.15 K, m1 = 0.2789	1005.16	1523.7	1.003
298.15 K, m1 = 0.4193	1009.06	1536.7	1.063
298.15 K, m1 = 0.5604	1012.86	1549.3	1.143
298.15 K, m1 = 0.7025	1016.56	1561.6	1.215
298.15 K, m1 = 0.8448	1020.15	1573.5	1.301
303.15 K, m1 = 0.1389	999.722	1522.1	0.853
303.15 K, m1 = 0.2789	1003.72	1534.9	0.893
303.15 K, m1 = 0.4193	1007.61	1547.4	0.95
303.15 K, m1 = 0.5604	1011.41	1559.5	1.013
303.15 K, m1 = 0.7025	1015.13	1571.3	1.077
303.15 K, m1 = 0.8448	1018.76	1582.7	1.158
308.15 K, m1 = 0.1389	998.079	1532.3	0.762
308.15 K, m1 = 0.2789	1002.05	1544.6	0.8
308.15 K, m1 = 0.4193	1005.91	1556.5	0.848
308.15 K, m1 = 0.5604	1009.68	1568.2	0.9
308.15 K, m1 = 0.7025	1013.37	1579.4	0.957
308.15 K, m1 = 0.8448	1016.96	1590.2	1.019

NCCCCCC(=O)O [6-aminohexanoic acid] + O
Conditions	mass density [kg/m3]	speed of sound [m/s]	viscosity [mPa·s]
288.15 K, m1 = 0.1386	1002.94	1484.1	1.237
288.15 K, m1 = 0.2786	1006.69	1501.7	1.324
288.15 K, m1 = 0.4193	1010.34	1518.8	1.43
288.15 K, m1 = 0.5602	1013.86	1535.5	1.543
288.15 K, m1 = 0.7027	1017.3	1551.7	1.676
288.15 K, m1 = 0.8448	1020.62	1566.7	1.804
288.15 K, m1 = 0.9881	1023.86	1581.4	1.945
288.15 K, m1 = 1.132	1026.99	1595.3	2.103
293.15 K, m1 = 0.1386	1001.94	1499.7	1.088
293.15 K, m1 = 0.2786	1005.61	1516.3	1.158
293.15 K, m1 = 0.4193	1009.17	1532.6	1.25
293.15 K, m1 = 0.5602	1012.62	1548.3	1.344
293.15 K, m1 = 0.7027	1016.01	1563.8	1.459
293.15 K, m1 = 0.8448	1019.28	1578.3	1.566
293.15 K, m1 = 0.9881	1022.48	1592.5	1.689
293.15 K, m1 = 1.132	1025.6	1606	1.825
298.15 K, m1 = 0.1386	1000.74	1513	0.962
298.15 K, m1 = 0.2786	1004.36	1529	1.025
298.15 K, m1 = 0.4193	1007.89	1544.6	1.103
298.15 K, m1 = 0.5602	1011.3	1559.8	1.183
298.15 K, m1 = 0.7027	1014.65	1574.6	1.277
298.15 K, m1 = 0.8448	1017.88	1588.6	1.377
298.15 K, m1 = 0.9881	1021.04	1602.2	1.481
298.15 K, m1 = 1.132	1024.11	1615.3	1.59
303.15 K, m1 = 0.1386	999.323	1524.5	0.865
303.15 K, m1 = 0.2786	1002.91	1539.8	0.916
303.15 K, m1 = 0.4193	1006.4	1554.7	0.984
303.15 K, m1 = 0.5602	1009.78	1569.1	1.062
303.15 K, m1 = 0.7027	1013.08	1583.2	1.137
303.15 K, m1 = 0.8448	1016.26	1596.8	1.222
303.15 K, m1 = 0.9881	1019.37	1610	1.314
303.15 K, m1 = 1.132	1022.39	1622.5	1.423
308.15 K, m1 = 0.1386	997.675	1534.6	0.781
308.15 K, m1 = 0.2786	1001.24	1549.2	0.821
308.15 K, m1 = 0.4193	1004.7	1563.5	0.881
308.15 K, m1 = 0.5602	1008.06	1577.4	0.949
308.15 K, m1 = 0.7027	1011.35	1591	1.02
308.15 K, m1 = 0.8448	1014.52	1603.9	1.096
308.15 K, m1 = 0.9881	1017.62	1616.4	1.177
308.15 K, m1 = 1.132	1020.64	1628.4	1.267
